In patent US5262537A, “Derivatives of 4,5,6,7-tetrahydroimidazo-[4,5-c]pyridinyl-6-carboxylic acid” (priority 1993, dated 1993):
Where a name gives a salt, the structure may show the parent alone. Read-outs that look alike come from different tables or passages of the source.

What was measured:
5-HT3 = biological target: T1, 5-HT3 (Rattus norvegicus, UniProt P35563); assay: biochemical; assay type: binding, Male Sprague-Dawley rats
T1 sequence (P35563 24-483): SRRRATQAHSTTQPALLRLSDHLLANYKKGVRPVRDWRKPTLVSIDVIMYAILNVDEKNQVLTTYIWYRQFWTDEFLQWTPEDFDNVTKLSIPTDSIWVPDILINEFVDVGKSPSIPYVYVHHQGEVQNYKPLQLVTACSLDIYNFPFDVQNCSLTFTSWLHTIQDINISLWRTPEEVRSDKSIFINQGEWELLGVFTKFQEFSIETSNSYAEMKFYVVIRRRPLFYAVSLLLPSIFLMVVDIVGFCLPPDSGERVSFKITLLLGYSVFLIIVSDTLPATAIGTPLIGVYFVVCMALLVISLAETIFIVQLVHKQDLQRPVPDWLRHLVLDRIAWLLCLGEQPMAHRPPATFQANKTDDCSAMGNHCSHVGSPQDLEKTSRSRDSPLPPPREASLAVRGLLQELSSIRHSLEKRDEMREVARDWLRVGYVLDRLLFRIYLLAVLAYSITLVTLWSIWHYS
Experimental: A number of compounds in accordance with the present invention were tested for their 5-HT3 and D2 binding affinities in accord with the following procedures.
Male Sprague-Dawley rats (175-220 g) were sacrificed by decapitation and their brains removed rapidly. The entorhinal cortex was used for the 5-HT3 (5-hydroxytryptamine) binding assay and the remainder of the brain, minus the brain stem and cerebellum, was used for the D2 (dopamine) binding assay. The entorhinal cortex was harvested and prepared on the day of the assay.
The entorhinal cortex was homogenized in 20 volumes of cold 50 mM HEPES buffer, pH 7.4, while the remaining brain tissue was homogenized in 20 volumes of cold 50 mM Tris, pH 7.4. The homogenates were centrifuged at 4800×g for 15 minutes at 5° C. and the supernatants decanted. Pellets were resuspended in the original volume of HEPES or Tris. Homogenates were centrifuged and the supernatants decanted. Pellets were resuspended in the same volume of HEPES or Tris and incubated at 37° C. for 45 minutes to remove endogenous neurotransmitters. Homogenates were centrifuged and the supernatants were decanted. Pellets for D2 assays were stored at -50° C. until the day of the assay. The pellets for the 5-HT3 assay (entorhinal cortex) were resuspended in the appropriate amount of HEPES buffer and used promptly. Modifications of published assays for [^3 H]GR65630 (Kilpatrick et al., Nature: 330, 746-748 (1987)) and [^3 H]raclopride (Dewar et al., J. Pharmacol. Exp. Ther.: 250, 696-706 (1989) and Lidow et al., Proc. Natl. Acad. Sci. USA: 86, 6412-6416 (1989)) were used for the 5-HT3 and D2 binding assays, respectively.
Briefly, 0.25 ml of homogenate was incubated with either 0.2 nM of [^3 H]GR65630 or 1.0 nM of [^3 H]raclopride in a final volume of 0.5 ml. D2 binding also requires sodium chloride and potassium chloride (120 mM and 5 mM, final concentration, respectively). In the 5-HT3 assay, non-specific binding was defined in the presence of 100 uM quipazine. In the D2 assay, non-specific binding was defined in the presence of 100 uM of (+/-) sulpiride. Both assays were incubated at room temperature; [^3 H]GR65630 for 40 minutes and [^3 H]raclopride for 60 minutes. Test compounds (0.1 ml) were added to incubates where appropriate. Bound ligand was separated from free ligand by filtration and quantified using liquid scintillation spectrophotometry. IC50 values were calculate for all test compounds.

Ferret = assay: Cisplatin Ferret Assay--Antiemetic Screening; assay type: in vivo, Male ferrets; details: Mustela putorius, iv, 4 h; for inhibition in vivo at 0.1 mg/kg: read-out: Ferret Cisplatin Test % Prot, 0.1 mg/Kg; for ED50: i.v., emetic episodes over four hours, read-out: Ferret Cisplatin Test ED50
Experimental: Male ferrets (castrated, descented, 1-2 kg) were purchased from Triple F Farms, Syre, Pa. Ferrets were housed four in a cage with a 12 hour light cycle and were fed ad libitum with Ralston Purina Cat Chow. Each ferret was used unfasted for the assay after a minimum of a 24 hour acclimation time in animal facility.
Ferret Preparation. Each ferret was anesthetized with 5% isoflurane-O2in a 20 gallon aquarium for 2 to 5 minutes. After removal of the anesthetic gas, the animals were removed and weighed. Injections were made into the dorsal front paw vein using a tourniquet and a 1 ml tuberculin syringe with a 25 g needle while the animal was maintained under anesthesia using a small nose cone delivering 5% isoflurane-O2. Cisplatin was injected using a 3 ml or 5 ml syringe in the opposite paw from the study compound or saline. Recovery time from anaesthesia was 5 to 8 minutes.
Drug Preparation. Cisplatin bulk powder was weighed and dissolved in normal saline at 75° C. to provide a 5 mg/ml solution (90 mg was placed in a scintillation vial and qs with 18 ml saline). The solution was stirred and maintained at 40° C. until ready for use. The study drug was weighed and dissolved in normal saline at room temperature to provide a 1 mg/ml solution (10 mg was placed in a scintillation vial and qs with 10 ml saline). Suspensions were heated to 40° C. to bring the study compound into solution. Compounds not soluble under these conditions were not assayed.
Assay. Cisplatin was injected i.v. at 10 mg/kg into twelve anesthetized ferrets daily at time zero. Normal saline (0.5 ml) or the study compound (0.1 or 1.0 mg/kg) was injected 30 minutes later in groups of three anesthetized ferrets. Order of treatment and treatment dose was selected at random, with the remaining treatment dose assayed in the next experiment.
Experimental Observations and Data Collection. Ferrets were viewed individually. The time and number of emetic episodes were recorded for four hours. Zero time was equivalent to the time of cisplatin injection. […] Retches were recorded but not counted. The total number of episodes for each of the four groups of three ferrets (+/-S.E.) was averaged and the effect of treatment (% protection) was calculated as the percent reduction of emetic episodes compared to controls. [formula]
Percent protection values were determined from experimental controls. Experimental controls were those obtained from the day of the experiment. Onset times of the first episode were averaged and recorded for each group. Prodromal signs (lip licking, slit eyes, head shaking, salivation, scratching, clawing, walking backward, sedation, urination, and defecation) were also averaged and recorded.

[1] = 0.2 nM [3H]GR65630, rat entorhinal cortex, 40 minutes, room temperature, read-out: 5-HT3 IC50
[2] = 0.1 mg/kg i.v., 30 minutes after cisplatin 10 mg/kg i.v., percent reduction of emetic episodes vs controls, four hours
[3] = 30 minutes after cisplatin 10 mg/kg i.v.

SMILES	IC50 (5-HT3; [1]) [nM]	inhibition in vivo at 0.1 mg/kg (Ferret; [2]) [%]	ED50 (Ferret; [3]) [mg/kg]	IC50 (5-HT3) [nM]	inhibition in vivo at 0.1 mg/kg (Ferret) [%]
CN1Cc2nc[nH]c2C[C@H]1C(=O)c1ccccc1 [Compd 38]	–	–	–	48.4	30
COc1ccc2oc(C(=O)[C@@H]3Cc4[nH]cnc4CN3C)cc2c1 [Compd 41]	12900	–	–	–	9
COc1ccccc1C(=O)[C@@H]1Cc2[nH]cnc2CN1C [Compd 43]	–	–	–	2380	41
CN1Cc2nc[nH]c2C[C@H]1C(=O)Nc1ccccc1Oc1cccc(C(F)(F)F)c1 [Compd 44]	9.52	1	0.26	–	–
CN1Cc2nc[nH]c2C[C@H]1C(=O)Nc1ccccc1Oc1cccc(F)c1 [Compd 45]	7.09	67	0.042	–	–
CCN(CC)CCNC(=O)c1cc(Cl)c(N)cc1OC [Metaclopramide, reference compound]	–	17	4.08	514	–

Second part, led by results:

IC50 (5-HT3; [1]) [nM]	SMILES	inhibition in vivo at 0.1 mg/kg (Ferret; [2]) [%]	ED50 (Ferret; [3]) [mg/kg]	IC50 (5-HT3) [nM]	inhibition in vivo at 0.1 mg/kg (Ferret) [%]
26.7	CN1Cc2nc[nH]c2C[C@H]1C(=O)Nc1ccccc1Cl [Compd 37]	42	0.065	–	–
4.18	CC(=O)c1ccccc1NC(=O)[C@@H]1Cc2[nH]cnc2CN1C [Compd 39, (S)-6-(2-acetylphenylaminocarbonyl)-5-methyl-4,5,6,7-tetrahydroimidazo[4,5-c]pyridine]	65	0.045	–	–
45.9	CN1Cc2nc[nH]c2C[C@H]1C(=O)Nc1cc(O)ccc1O [Compd 40, (S)-6-(2,5-dihydroxyphenylaminocarbonyl)-5-methyl-4,5,6,7-tetrahydroimidazo[4,5-c]pyridine dihydrobromide]	0	–	–	–
3490	CN1Cc2nc[nH]c2C[C@H]1C(=O)Nc1ccccc1N [Compd 42]	39	0.23	–	–
158	CC(=O)c1ccccc1NC(=O)[C@@H]1Cc2[nH]cnc2C(C)(C)N1 [Compd 48]	100	0.0098	–	–
8.55	CC1(C)N[C@H](C(=O)Nc2ccccc2Oc2ccccc2)Cc2[nH]cnc21 [Compd 49, (S)-6-(2-phenoxy-phenylaminocarbonyl)-4,4-dimethyl-4,5,6,7-tetrahydroimidazo[4,5-c]pyridine]	76	0.022	–	–
